Data as given in ChEMBL document CHEMBL4390692, “Enzymatic activation of indolequinone-substituted 5-fluorodeoxyuridine prodrugs in hypoxic cells” (Bioorg Med Chem Lett, 2019).
Active and inactive are the calls of the source. No cut-off for these calls is given here.

How the values were obtained:
[1] = target: T1, NADPH--cytochrome P450 reductase (Homo sapiens, UniProt P16435); test: Prodrug activation in pH 7.4 PBS buffer assessed as 3.3 ug/mL NADPH-cytochrome P450 reductase (unknown origin) mediated FdUrd formation at 0.62 mM in the presence of beta-NADPH measured after 2 hrs under hypoxic condition by reverse phase HPLC relative to control; assay type: ADME; conditions: pH 7.4, 2 h, 620 µM
T1 sequence (P16435 whole entry): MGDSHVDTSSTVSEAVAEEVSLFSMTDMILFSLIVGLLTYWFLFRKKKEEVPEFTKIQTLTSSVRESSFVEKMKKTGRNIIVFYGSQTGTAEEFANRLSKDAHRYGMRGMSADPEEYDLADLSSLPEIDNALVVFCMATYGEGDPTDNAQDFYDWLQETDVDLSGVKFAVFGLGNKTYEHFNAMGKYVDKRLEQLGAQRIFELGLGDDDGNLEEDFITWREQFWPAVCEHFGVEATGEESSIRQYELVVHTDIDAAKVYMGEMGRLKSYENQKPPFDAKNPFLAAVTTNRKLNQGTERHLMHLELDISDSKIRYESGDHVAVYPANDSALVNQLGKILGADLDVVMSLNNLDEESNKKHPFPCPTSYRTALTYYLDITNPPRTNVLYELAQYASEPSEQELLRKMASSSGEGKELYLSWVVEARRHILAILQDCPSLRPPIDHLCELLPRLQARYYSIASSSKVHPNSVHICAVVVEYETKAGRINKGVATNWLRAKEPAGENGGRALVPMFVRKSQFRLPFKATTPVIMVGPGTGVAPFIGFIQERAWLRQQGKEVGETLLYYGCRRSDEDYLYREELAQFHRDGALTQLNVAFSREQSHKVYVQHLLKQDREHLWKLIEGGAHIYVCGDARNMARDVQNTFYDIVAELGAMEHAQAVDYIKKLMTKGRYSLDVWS

A549 [2] = test: Cytotoxicity against human A549 cells at 1 uM treated 24 hrs post aerobic condition and measured after 72 hrs under aerobic condition by WST-8 assay relative to control; assay type: cell-based; conditions: a549, 72 h
A549 [3] = test: Cytotoxicity against human A549 cells at 1 to 50 uM treated 24 hrs post hypoxic condition measured after 72 hrs under hypoxic condition by WST-8 assay relative to control; assay type: functional, cell-based
[4] = target: T1, NADPH--cytochrome P450 reductase; test: Prodrug activation in pH 7.4 PBS buffer assessed as 3.3 ug/mL NADPH-cytochrome P450 reductase (unknown origin) mediated FdUrd formation at 0.62 mM in the presence of beta-NADPH measured after 2 hrs under aerobic condition by reverse phase HPLC; assay type: ADME; conditions: pH 7.4, 2 h, 620 µM
[5] = substrate: COC1=CC(=O)c2c(c(Cn3c(=O)c(F)cn([C@H]4C[C@H](O)[C@@H](CO)O4)c3=O)c(C)n2C)C1=O; test: Prodrug conversion in pH 7.4 PBS buffer assessed as NADPH-cytochrome P450 reductase (unknown origin) mediated FdUrd release by measuring Km at 0.62 mM in the presence of beta-NADPH measured after 2 hrs under aerobic condition by Lineweaver-Burk plot analysis; assay type: ADME, Homo sapiens
[6] = substrate: COC1=CC(=O)c2c(c(Cn3c(=O)c(F)cn([C@H]4C[C@H](O)[C@@H](CO)O4)c3=O)c(C)n2C)C1=O; test: Prodrug conversion in pH 7.4 PBS buffer assessed as NADPH-cytochrome P450 reductase (unknown origin) mediated FdUrd release by measuring Km at 0.62 mM in the presence of beta-NADPH measured after 2 hrs under hypoxic condition by Lineweaver-Burk plot analysis; assay type: ADME, Homo sapiens

`CNC1=CC(=O)c2c(c(Cn3c(=O)c(F)cn([C@H]4C[C@H](O)[C@@H](CO)O4)c3=O)c(C)n2C)C1=O` was tested, and the Drug metabolism [1] was “Metabolite_Notdetected”.

For `O=c1[nH]c(=O)n([C@H]2C[C@H](O)[C@@H](CO)O2)cc1F` [FLOXURIDINE], the Activity (A549 [2]) was “Toxic”.

`COC1=CC(=O)c2c(c(Cn3c(=O)c(F)cn([C@H]4C[C@H](O)[C@@H](CO)O4)c3=O)c(C)n2C)C1=O` was tested, and the Activity (A549 [3]) was “Active”, the Drug metabolism [4] was “Metabolite_Notdetected” and the Activity (A549 [2]) was “Non-Toxic”.

B1: NADPH--cytochrome P450 reductase (Homo sapiens) (protein)
chain: T1 sequence (P16435 whole entry)
B1 showed a Km [5] of 1500 µM, a Vmax [5] of 2e-07 µmol/min and a Km [6] of 1000 µM. For the same molecule, the Vmax [6] was 3.4e-06 µmol/min.
